ChEMBL document CHEMBL4765471, “1-Methyl-1H-pyrazole-5-carboxamide Derivatives Exhibit Unexpected Acute Mammalian Toxicity” (J Med Chem, 2021)
pIC50: −log10 of the molar value.

What was measured:
[1] = Inhibition of Haemonchus contortus by L4 development assay; type: functional
[2] = Toxicity in rat FAO cells assessed as reduction in cell proliferation incubated for 48 hrs by crystal violet staining based assay
[3] = Toxicity in orally dosed Swiss mouse assessed as induction of observable clinical effects measured 2 to 4 days after dosing; type: organism-based; details: in vivo, po, time 2-4 day
[4] = Selectivity index, ratio of IC50 for toxicity in rat FAO cells assessed as reduction in cellular respiration to IC50 for inhibition of Haemonchus contortus by L4 development assay
[5] = Toxicity in Swiss mouse assessed as induction of reversible motor depression at 5 mg/kg, po measured at first 15 mins post dosing; type: organism-based; details: in vivo, 0.25 h
[6] = Toxicity in human MCF-10A cells; type: cell-based
[7] = Toxicity in rat FAO cells assessed as reduction in cellular respiration incubated over 1 hrs by extracellular flux analyzer based assay; type: cell-based
[8] = Toxicity in female Swiss mouse assessed as induction of reversible motor depression at 20 mg/kg, po; type: organism-based; details: in vivo
[9] = Toxicity in male Swiss mouse assessed as induction of reversible motor depression at 20 mg/kg, po; type: organism-based; details: in vivo
[10] = Toxicity in female Swiss mouse assessed as induction of reversible motor depression at 30 mg/kg, po; type: organism-based; details: in vivo
[11] = Toxicity in male Swiss mouse assessed as induction of reversible motor depression at 50 mg/kg, po; type: organism-based; details: in vivo

Compound | pIC50 [1] | IC50 at 48 h [2] [nM] | MTD [3] [mg/kg] | Ratio IC50 [4] | Activity [5] | pIC50 [6] | IC50 at 1 h [7] [nM] | Activity [8] | Activity [9] | Activity [10] | Activity [11]
Cn1ncc(Cl)c1C(=O)NCc1ccc(Oc2ccc(Cl)nc2)cc1 | 7.52 | < 6000 | 1 | 63 | Toxic | < 4.30 | 1900 |  |  |  | 
Cn1ncc(Cl)c1C(=O)NCc1ccc(Oc2ccc(Cl)cc2)cc1 | 9.00 | < 6000 | 5 | 1700 |  | < 4.30 | 1700 | Toxic | Toxic |  | 
Cc1nn(C)c(C(=O)NCc2ccc(Oc3ccc(Cl)cc3)cc2)c1Cl | > 9.15 | < 6000 |  | 181 |  | 4.30 | 1270 |  |  |  | 
Cn1ncc(Cl)c1C(=O)NCc1ccc(-c2noc(C3CC3)n2)cc1 | 9.05 | < 6000 | 1 | 4144 | Toxic | 4.61 | 3730 |  |  |  | 
CCc1nn(C)c(C(=O)NCc2ccc(Oc3ccc(C)cc3)cc2)c1Cl [TOLFENPYRAD] | 7.70 | < 6000 | 1 | 55 | Toxic | 4.47 | 1100 |  |  |  | 
CCc1nc(-c2ccc(CNC(=O)c3c(Cl)c(CC)nn3C)cc2)no1 | 8.70 | < 6000 |  | 80 |  | < 4.30 | 160 |  |  |  | 
Cc1nn(C)c(C(=O)NCc2ccc(Oc3ccc(Cl)nc3)cc2)c1Cl | 9.52 | < 6000 | 1 | 500 | Toxic | < 4.30 | 150 |  |  |  | 
Cc1ccc(Oc2ccc(CNC(=O)c3c(F)cnn3C)cc2)cc1 | 8.00 | < 6000 | 20 | 430 |  | 4.86 | 4300 |  |  | Toxic | Toxic
CCc1nc(-c2ccc(CNC(=O)c3ccnn3C)cc2)no1 | 6.70 | < 6000 | 1 | 7 | Toxic | < 4.00 | 1300 |  |  |  | 
CCc1nn(C)c(C(=O)NCc2ccc(Oc3ccc(Cl)cc3)cc2)c1Cl | 7.10 | < 6000 |  | 6 |  | 5.06 | 510 |  |  |  | 
